Consider two compounds from PMC12412326, “Cloning and Functional Characterization of a Novel Brevinin-1-Type Peptide from Sylvirana guentheri with Anticancer Activity” (Current Issues in Molecular Biology, 2025).

Read-outs that look alike come from different tables or passages of the source. Ends that are not written are not given here. Peptide text beside a SMILES is read from it. Bounds are passed on as bounds.

For orientation: IC50 means the point on the concentration scale where inhibition reaches its midpoint.

One series concerns Bacillus subtilis. The class given is cell-based. On the procedure: (§1) The antibacterial activity of brevinin-1 E8.13 was evaluated against six bacterial strains, including two Gram-positive species (Staphylococcus aureus and Bacillus subtilis) and four Gram-negative species (Escherichia coli, Acinetobacter baumannii, Klebsiella pneumoniae, and Pseudomonas aeruginosa). All strains were isolated and identified by the Department of Microbiology, Thanh Nhan Hospital (Hanoi, Vietnam), and are currently maintained at the Laboratory of Cell Biotechnology and Bioassay, Institute of Biology, Vietnam Academy of Science and Technology (VAST).
(§2) Each bacterial strain was first cultured overnight in Luria–Bertani (LB) broth. Then, 100 μL of the overnight culture was transferred to 5 mL of fresh LB broth and incubated at 37 °C with shaking until reaching the logarithmic growth phase. Cultures were adjusted to a concentration of 10^6 colony-forming units (CFU)/mL and dispensed into 96-well plates. The peptide was added at final concentrations ranging from 24.8 μM to 0.4 μM. After 24 h of incubation at 37 °C, bacterial growth was quantified by measuring optical density (OD) at 600 nm using a Synergy HT microplate reader (BioTek, Winooski, VT, USA). All concentrations were tested in triplicate.

For another series, the system named is Escherichia coli. Type of series: cell-based. On the procedure:
as §1, §2

The subject of the next series is Staphylococcus aureus. Type of series: cell-based. As to conditions: for MIC S. aureus: 24 h. On the procedure: as §1, §2
For a further series, the system named is Acinetobacter baumannii. Nature of the series: Antibacterial activity (MIC, broth dilution in 96-well plates). Type of series: cell-based. As to conditions: LB broth, 10^6 CFU/mL, 24 h at 37 °C, OD 600 nm, triplicate. On the procedure: as §1, §2
The subject of a further series is Klebsiella pneumoniae. The description is as above. Type of series: cell-based. As to conditions: LB broth, 10^6 CFU/mL, 24 h at 37 °C, OD 600 nm, triplicate. The procedure:
as §1, §2

The next series concerns Pseudomonas aeruginosa. The description is as above. Type of series: cell-based. As to conditions: LB broth, 10^6 CFU/mL, 24 h at 37 °C, OD 600 nm, triplicate. On the procedure:
as §1, §2

The next series deals with A549 (lung) cells. Type of series: cell-based, human. As to conditions: 72 h. The procedure: (§3) The cytotoxic effects of brevinin-1 E8.13 were evaluated in six human cancer cell lines: A549 (lung), AGS (stomach), Jurkat (blood), HCT116 (colon), HL60 (blood), and HepG2 (liver). All cell lines were cultured in either DMEM or RPMI-1640 medium supplemented with 10% fetal bovine serum (FBS) and 1% penicillin–streptomycin, under conditions of 5% CO2 at 37 °C. The 3-(4,5-dimethylthiazol-2-yl)-2,5-diphenyltetrazolium bromide (MTT) assay was used to assess cell viability. Cells were seeded at a density of 10^4 cells per well in 96-well plates and incubated at 37 °C. After 72 h of treatment with the peptide, 10 µL of MTT reagent (Merck, Darmstadt, Germany) in PBS, pH 7.0 was added to each well and incubated for 4 h. Following supernatant removal, 100 µL of dimethyl sulfoxide (DMSO, Merck, Germany) was added to dissolve the resulting formazan crystals. Absorbance was measured at 570 nm using a microplate reader. Each experimental condition was performed in triplicate. The cytotoxicity of the peptide was also evaluated in normal human dermal fibroblast cells using the same assay.

Another series concerns AGS (stomach) cells. The class given is cell-based, human. As to conditions: 72 h. On the procedure: as §3
The test system of a further series is HCT116 (colon) cells. The class given is cell-based, human. As to conditions: 72 h. On the procedure: as §3
The test system of another series is HL60 (blood) cells. The class given is cell-based, human. As to conditions: 72 h. The procedure:
as §3

Another series relates to HepG2 (liver) cells. The class given is cell-based, human. As to conditions: 72 h. The procedure: as §3
A further series has as its system Jurkat (blood) cells. The class given is cell-based, human. As to conditions: 72 h. On the procedure:
as §3

Series [1] deals with human cancer cell lines (A549, AGS, Jurkat, HCT116, HL60, HepG2). The class given is cell-based. The procedure:
as §3

Series [2] can be described thus: Circular dichroism, secondary structure estimated with CDNN 2.1. The class given is physicochemical. As to conditions: 0.3 mg/mL in deionized water, CDNN 2.1, 190–260 nm range. On the procedure: The CD spectrum of the peptide brevinin-1 E8.13 was measured to evaluate its secondary structure. The peptide was dissolved in deionized water at a concentration of 0.3 mg/mL. Measurements were performed using a ChiraScan™ Circular Dichroism Spectrometer (Applied Photophysics, Leatherhead, Surrey, UK) with a quartz cuvette of 1 mm path length. The CD spectra were recorded over a wavelength range of 180–260 nm using the default instrument settings recommended by the manufacturer (scanning speed, integration time, and bandwidth). Each sample was measured three consecutive times, and the solvent-corrected average spectrum was used for analysis. The resulting spectra were processed using the CDNN 2.1 (Circular Dichroism Neural Network) software to estimate the proportions of secondary structural elements, including α-helix, β-sheet, β-turn, and random coil.

Where [3] appears, read: LB broth, 10^6 CFU/mL, 24 h at 37 °C, OD 600 nm, triplicate.

For the compound `CC[C@H](C)[C@H](NC(=O)[C@H](C)NC(=O)[C@H](C)NC(=O)[C@@H]1CCCN1C(=O)[C@@H](NC(=O)[C@H](CC(C)C)NC(=O)[C@H](CCCCN)NC(=O)[C@H](CO)NC(=O)[C@H](C)NC(=O)[C@@H](NC(=O)[C@H](CCCCN)NC(=O)[C@H](Cc1ccccc1)NC(=O)[C@H](CC(C)C)NC(=O)[C@H](C)NC(=O)CNC(=O)[C@H](CC(C)C)NC(=O)[C@@H](N)Cc1ccccc1)C(C)C)C(C)C)C(=O)N[C@@H](CS)C(=O)N[C@@H](CO)C(=O)N[C@@H](Cc1ccccc1)C(=O)N[C@@H](CO)C(=O)N[C@@H](CCCCN)C(=O)N[C@@H](CCCCN)C(=O)N[C@@H](CS)C(N)=O` [Brevinin-1 E8.13] (H-FLGALFKVASKLVPAAICSFSKKC-NH2; N-terminus assumed), in the series with Bacillus subtilis (setting [3]), the “MIC B. subtilis” value was over 24.8 µM. Further, the “MIC E. coli” value in the series on Escherichia coli (setting [3]) was over 24.8 µM. For the same compound, the “MIC S. aureus” value with Staphylococcus aureus was 1.5 µM. Further, the “Selectivity Index (SI) toward Staphylococcus aureus over normal cells” value in the series on Staphylococcus aureus (SI = IC50 (HDF) or HC50 / MIC, result in words) is recorded as “high selectivity (SI > 10 reflects high selectivity)”. Moreover, the “MIC A. baumanii” value with Acinetobacter baumannii was over 24.8 µM. The “MIC K. pneumonia” value in the series on Klebsiella pneumoniae was over 24.8 µM. For the same compound, the “MIC P. aeruginosa” value with Pseudomonas aeruginosa was over 24.8 µM. In addition, the IC50 in the series with A549 (lung) cells amounted to 31.6 µM; in the series on AGS (stomach) cells, 7.5 µM; with HCT116 (colon) cells it was 9.2 µM; in the series on HL60 (blood) cells, 14.8 µM; with HepG2 (liver) cells, 11.7 µM; in the series with Jurkat (blood) cells, 12.9 µM. In addition, the IC50 in [1] (72 h) was 7.5 to 14.8 µM. In series [1] (SI = IC50 (HDF) or HC50 / IC50 (cancer cells), result in words), the “Selectivity Index (SI) toward cancer cells” value is “moderate selectivity”. In series [2], the “Antiparallel β-sheet content (CD)” value is listed as 36.2%. Also, in series [2], the “Random coil content (CD)” value is 27.74%. Moreover, the “α-helix content (CD)” value in series [2] was 11.83%. Also, the “β-turn content (CD)” value in series [2] was 15.48%.

“FAKWAFKWLKK-NH2 [GA-K4AL, reference compound]”: the “MIC B. subtilis” value in the series on Bacillus subtilis (24 h) was over 41.8 µM. In addition, the “MIC E. coli” value with Escherichia coli (24 h) is 10.1 µM. For the same compound, in the series with Staphylococcus aureus, the “MIC S. aureus” value came to 2.5 µM.
